Measured values from PubChem BioAssay (NCI).
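How tested: cells in 96-well plates exposed to compound for 48 hours at five concentrations. Abbreviation: GI50, concentration required for 50% inhibition of growth. Definition used: TGI = concentration required for complete inhibition of growth.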

Columns and labels:
Experiment in all cases: DTP human tumour cell line panel, 48 h
[1] = tested on: SF-295 CNS
[2] = tested on: NCI-H460 lung
[3] = tested on: UO-31 renal
[4] = tested on: U251 CNS
[5] = tested on: T-47D breast
[6] = tested on: MALME-3M melanoma
[7] = tested on: 786-0 renal
[8] = tested on: MDA-MB-231 breast
[9] = tested on: HS 578T breast
[10] = tested on: OVCAR-4 ovarian
[11] = tested on: MOLT-4 leukemia
[12] = tested on: CCRF-CEM leukemia
[13] = tested on: PC-3 prostate
[14] = tested on: RXF 393 renal
[15] = tested on: HT29 colon
[16] = tested on: SF-539 CNS
[17] = tested on: HCC-2998 colon
[18] = tested on: OVCAR-8 ovarian
[19] = tested on: SNB-75 CNS
[20] = tested on: SK-MEL-28 melanoma
[21] = tested on: NCI-H23 lung
[22] = tested on: SR leukemia
[23] = tested on: NCI/ADR-RES ovarian
[24] = tested on: MDA-MB-435
[25] = tested on: HL-60(TB) leukemia
[26] = tested on: KM12 colon
[27] = tested on: CAKI-1 renal
[28] = tested on: BT-549 breast
[29] = tested on: SNB-19 CNS
[30] = tested on: HOP-92 NSCLC
[31] = tested on: UACC-257 melanoma
[32] = tested on: RPMI-8226 leukemia
[33] = tested on: SK-MEL-5 melanoma
[34] = tested on: A549 NSCLC
[35] = tested on: SF-268 CNS
[36] = tested on: COLO 205 colon
[37] = tested on: NCI-H226 lung
[38] = tested on: NCI-H522 lung
[39] = tested on: ACHN renal
[40] = tested on: OVCAR-3 ovarian
[41] = tested on: LOX IMVI melanoma
[42] = tested on: EKVX NSCLC
[43] = tested on: SK-MEL-2 melanoma
[44] = tested on: MCF7 breast
[45] = tested on: K-562 leukemia
[46] = tested on: HCT-15 colon
[47] = tested on: DU-145 prostate
[48] = tested on: IGROV1 ovarian
[49] = tested on: HCT-116 colon
[50] = tested on: TK-10 renal
[51] = tested on: HOP-62 NSCLC
[52] = tested on: UACC-62 melanoma
[53] = tested on: M14 melanoma
[54] = tested on: A498 renal
[55] = tested on: SN12C renal
[56] = tested on: SK-OV-3 ovarian
[57] = tested on: OVCAR-5 ovarian
[58] = tested on: SW-620 colon

CCC(=C/[C@H](C)C/C=C/C(C)=C/[C@@H](C)C(=O)[C@@H](C)[C@H](O)[C@@H](C)CC)/C=C/[C@H]1OC(=O)C=C[C@H]1C
GI50 [1]: < 10 nM | TGI [1]: 1360 nM | GI50 [2]: < 10 nM | TGI [2]: 1100 nM | GI50 [3]: < 10 nM | TGI [3]: 1150 nM | GI50 [4]: < 10 nM | TGI [4]: 1350 nM | GI50 [5]: < 10 nM | TGI [5]: 880 nM | GI50 [6]: < 10 nM | GI50 [7]: < 10 nM | TGI [7]: 642 nM | GI50 [8]: < 10 nM | TGI [8]: 1500 nM | GI50 [9]: < 10 nM | TGI [9]: 438 nM | GI50 [10]: < 10 nM | TGI [10]: 1290 nM | GI50 [11]: < 10 nM | GI50 [12]: < 10 nM | TGI [12]: 9070 nM | GI50 [13]: < 10 nM | TGI [13]: 1570 nM | GI50 [14]: < 10 nM | TGI [14]: < 10 nM | GI50 [15]: < 10 nM | TGI [15]: 1200 nM | GI50 [16]: < 10 nM | TGI [16]: 439 nM | GI50 [17]: < 10 nM | TGI [17]: < 10 nM | GI50 [18]: < 10 nM | TGI [18]: 1270 nM | GI50 [19]: < 10 nM | TGI [19]: 85.4 nM | GI50 [20]: < 10 nM | TGI [20]: 1110 nM | GI50 [21]: < 10 nM | TGI [21]: 1500 nM | GI50 [22]: < 10 nM | GI50 [23]: < 10 nM | TGI [23]: 1390 nM | GI50 [24]: < 10 nM | TGI [24]: 25.6 nM | GI50 [25]: < 10 nM | TGI [25]: < 40 nM | GI50 [26]: < 10 nM | TGI [26]: 113 nM | GI50 [27]: < 10 nM | TGI [27]: 1800 nM | GI50 [28]: < 10 nM | GI50 [29]: < 10 nM | TGI [29]: 1290 nM | GI50 [30]: < 10 nM | TGI [30]: 722 nM | GI50 [31]: < 10 nM | TGI [31]: 1550 nM | GI50 [32]: < 10 nM | TGI [32]: 42.1 nM | GI50 [33]: < 10 nM | TGI [33]: 43.7 nM | GI50 [34]: < 10 nM | TGI [34]: 1930 nM | GI50 [35]: < 10 nM | TGI [35]: 1460 nM | GI50 [36]: < 10 nM | TGI [36]: 68.4 nM | GI50 [37]: < 10 nM | TGI [37]: 598 nM | GI50 [38]: < 10 nM | TGI [38]: < 10 nM | GI50 [39]: < 10 nM | TGI [39]: 1370 nM | GI50 [40]: < 10 nM | GI50 [41]: < 10 nM | TGI [41]: 1110 nM | GI50 [42]: 288 nM | TGI [42]: 11600 nM | GI50 [43]: < 10 nM | TGI [43]: < 10 nM | GI50 [44]: < 10 nM | TGI [44]: 1180 nM | GI50 [45]: < 10 nM | TGI [45]: < 10 nM | GI50 [46]: < 10 nM | TGI [46]: 1170 nM | GI50 [47]: < 10 nM | TGI [47]: 2690 nM | GI50 [48]: < 10 nM | TGI [48]: 1270 nM | GI50 [49]: < 10 nM | TGI [49]: 10.2 nM | GI50 [50]: < 10 nM | TGI [50]: 1520 nM | GI50 [51]: < 10 nM | TGI [51]: 1130 nM | GI50 [52]: < 10 nM | TGI [52]: 75.5 nM | GI50 [53]: < 10 nM | TGI [53]: 132 nM | GI50 [54]: < 10 nM | TGI [54]: < 24 nM | GI50 [55]: < 10 nM | TGI [55]: 1360 nM | GI50 [56]: < 22.1 nM | TGI [56]: 3440 nM | GI50 [57]: < 10 nM | TGI [57]: 1350 nM | GI50 [58]: < 10 nM | TGI [58]: 1900 nM

COC(=O)CCC/C=C\C[C@H]1C=CC(=O)/C1=C/C[C@@H](O)C/C=C\CC(F)(F)F
GI50 [1]: 2510 nM | TGI [1]: 5820 nM | GI50 [2]: 3040 nM | TGI [2]: 10600 nM | GI50 [3]: 1700 nM | TGI [3]: 3360 nM | GI50 [4]: 1790 nM | TGI [4]: 4320 nM | GI50 [5]: 3060 nM | TGI [5]: 16300 nM | GI50 [6]: 2390 nM | TGI [6]: 7030 nM | GI50 [7]: 1850 nM | TGI [7]: 3570 nM | GI50 [8]: 2720 nM | TGI [8]: 7410 nM | GI50 [9]: 8980 nM | TGI [9]: 70300 nM | GI50 [10]: 5090 nM | TGI [10]: 18600 nM | GI50 [11]: 773 nM | TGI [11]: 4220 nM | GI50 [12]: 345 nM | TGI [12]: 5270 nM | GI50 [13]: 2790 nM | TGI [13]: 7310 nM | GI50 [14]: 1980 nM | TGI [14]: 3660 nM | GI50 [15]: 1890 nM | TGI [15]: 4490 nM | GI50 [16]: 3240 nM | TGI [16]: 9090 nM | GI50 [17]: 2000 nM | TGI [17]: 3500 nM | GI50 [18]: 3300 nM | TGI [18]: 13400 nM | GI50 [19]: 12400 nM | TGI [19]: 29300 nM | GI50 [20]: 2080 nM | TGI [20]: 4770 nM | GI50 [21]: 1900 nM | TGI [21]: 4160 nM | GI50 [22]: 384 nM | TGI [22]: 5440 nM | GI50 [23]: 2320 nM | TGI [23]: 8330 nM | GI50 [24]: 2050 nM | TGI [24]: 10600 nM | GI50 [25]: 1930 nM | TGI [25]: 7790 nM | GI50 [26]: 1970 nM | TGI [26]: 5650 nM | GI50 [27]: 4070 nM | TGI [27]: 14800 nM | GI50 [28]: 2120 nM | TGI [28]: 5370 nM | GI50 [29]: 2990 nM | TGI [29]: 14200 nM | GI50 [30]: 3270 nM | TGI [30]: 7880 nM | GI50 [31]: 2540 nM | TGI [31]: 7820 nM | GI50 [32]: 1260 nM | TGI [32]: 7900 nM | GI50 [33]: 1640 nM | TGI [33]: 3050 nM | GI50 [34]: 2910 nM | TGI [34]: 8730 nM | GI50 [35]: 2840 nM | TGI [35]: 13800 nM | GI50 [36]: 2030 nM | TGI [36]: 4580 nM | GI50 [37]: 2080 nM | TGI [37]: 4100 nM | GI50 [38]: 1060 nM | TGI [38]: 2570 nM | GI50 [39]: 1950 nM | TGI [39]: 3970 nM | GI50 [40]: 1310 nM | TGI [40]: 3490 nM | GI50 [41]: 243 nM | TGI [41]: 668 nM | GI50 [42]: 4040 nM | TGI [42]: 14600 nM | GI50 [43]: 2550 nM | TGI [43]: 7530 nM | GI50 [44]: 393 nM | TGI [44]: 10300 nM | GI50 [45]: 789 nM | TGI [45]: 28300 nM | GI50 [46]: 1070 nM | TGI [46]: 3290 nM | GI50 [47]: 3890 nM | TGI [47]: 14700 nM | GI50 [48]: 2780 nM | TGI [48]: 7600 nM | GI50 [49]: 1260 nM | TGI [49]: 2750 nM | GI50 [50]: 3220 nM | TGI [50]: 10800 nM | GI50 [51]: 1890 nM | TGI [51]: 5160 nM | GI50 [52]: 1200 nM | TGI [52]: 3640 nM | GI50 [53]: 1500 nM | TGI [53]: 4390 nM | GI50 [54]: 2470 nM | TGI [54]: 4570 nM | GI50 [55]: 2530 nM | TGI [55]: 7380 nM | GI50 [56]: 5550 nM | TGI [56]: 16500 nM | GI50 [57]: 3420 nM | TGI [57]: 9650 nM | GI50 [58]: 1890 nM | TGI [58]: 12400 nM
